The data set is described as follows: gradient 5% acetonitrile 3 min, to 50% in 2 min, to 85% in 15 min, held 3 min, 100 µL/min. Conditions: column: Zorbax Extend-C18 2.1 x 50 mm; eluents: water / acetonitrile, 0.1% formic acid. The procedure, abridged: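 Retention times come from adduct peaks that were picked computationally and then checked by hand. The standards, pure and pooled in mixtures of ~100 molecules, were run on a Zorbax Extend-C18 column (2.1 × 50 mm, 1.8 μm) at 100 μL/min with water and acetonitrile, each with 0.1% formic acid. Detection was by quadrupole time-of-flight mass spectrometry in positive and negative ionization mode, with a dead volume of 40 μL and a dwell volume of 900 μL.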
Compound `CCn1c(CCC(=O)NCc2ccc(Cl)cc2)nc2ccccc2c1=O` returned an RP-LC retention time of 812 s.

`COc1ccc(NC(=O)C2CCCN(c3nc4ccccc4nc3C(F)(F)F)C2)c(OC)c1` (stereo not given) showed an RP-LC retention time of 1190 s.

With `COc1ccc(Cn2nc3c(S(=O)(=O)N4CCOCC4)cccn3c2=O)cc1`, the RP-LC retention time turned out to be 734 s.

Compound `CCN1CCN(c2cc(C)c3cc(NC(=S)NCc4ccc5c(c4)OCO5)ccc3n2)CC1` gave an RP-LC retention time of 590 s.

Compound `Cc1cc(F)ccc1NC(=O)CN1C(=O)CCc2cc(S(=O)(=O)N3CCCCC3C)ccc21` (stereo not given) returned an RP-LC retention time of 920 s.

The compound `CC(C)n1nnc2cc(S(=O)(=O)N3CCCC(C(=O)N(C)Cc4ccccc4)C3)ccc21` (stereo not given) came in with an RP-LC retention time of 940 s.

In the case of `Cc1ccc(S(=O)(=O)N2CCOCC2)cc1-c1nnc(-c2ccc(Cl)cc2)o1`, the RP-LC retention time came to 1030 s.

The compound `Cc1ccc2c(=O)c(S(=O)(=O)c3ccccc3)cn(Cc3cccc(Cl)c3)c2n1` returned an RP-LC retention time of 1030 s.

As for `Cc1c(Cl)cccc1NC(=O)N1CCN(CCn2c(C(F)(F)F)nc3cccnc32)CC1`, the RP-LC retention time came to 666 s.

As to `CC(C)CNC(=O)CCc1nc2ccccc2n(CC(=O)NCc2ccc3c(c2)OCO3)c1=O`, the RP-LC retention time came to 748 s.

Compound `Cc1ccc(CN2C(=O)COc3ccc(C(=O)NCc4ccc5c(c4)OCO5)cc32)cc1` registered an RP-LC retention time of 921 s.

On to `CCNc1nc(C)cc(N2CCN(S(=O)(=O)c3ccc(C(F)(F)F)cc3)CC2)n1`, for which the RP-LC retention time is 754 s.

On to `Cc1cc(OCC(=O)Nc2ccc(C#N)cc2)nc(N2CCN(c3ccccc3)CC2)n1`, for which the RP-LC retention time came out at 802 s.

Consider `CCN1C(=O)c2c(C(=O)NCc3ccc(C)cc3)ncn2CC1(C)C(=O)NC1CCCC1` (stereo not given), for which the RP-LC retention time stood at 783 s.

The compound `CCCCNC(=O)CCCn1c(=O)c2cccn2c2ccccc21` came in with an RP-LC retention time of 780 s.

As for `ClCC(CNCc1ccccc1)c1ccccc1` (stereo not given), the RP-LC retention time came out at 723 s.

For the compound `O=C(C1CCCCC1)N1CCN(c2nnc3ccc(C(F)(F)F)cn23)CC1`, the RP-LC retention time turned out to be 817 s.

Regarding `O=S(=O)(Cc1cccc(Cl)c1)N1CCc2nc(-c3ccc(Cl)cc3)ncc2C1`, the RP-LC retention time is 1210 s.

The compound `CN1c2cc(F)ccc2C(=O)NC12CCN(C(=O)c1ccc3c(c1)OCO3)CC2` showed an RP-LC retention time of 724 s.

`CC(C)N1C(=O)c2cccnc2Sc2cc(NC(=O)Cc3cccs3)ccc21` displayed an RP-LC retention time of 834 s.

The compound `Cc1ccc(CC(=O)N2CCC3(C2)C(=O)N(C)c2ccccc23)cc1` (stereo not given) came in with an RP-LC retention time of 850 s.

Turning to `O=C(c1noc2c1CCCC2)N1CCN(c2ccccn2)CC1`, the RP-LC retention time came out at 613 s.

In the case of `CCOC(=O)c1ccc(Nc2nnc(CSc3nc(C)cc(C)n3)s2)cc1`, the RP-LC retention time turned out to be 834 s.

`Cc1c(Cl)cccc1NC(=O)C(=O)NCC1(c2ccc(F)cc2)CC1` gave an RP-LC retention time of 1110 s.

In turn, `O=C(C1CCN(c2cnc3nccnc3c2)CC1)N1CCN(c2ccc(Cl)cc2)CC1` showed an RP-LC retention time of 810 s.

In the case of `COC(=O)c1ccc(NS(=O)(=O)c2cc3n(c2)CCN(C)C3=O)cc1`, the RP-LC retention time was found to be 682 s.

Compound `CN(C)c1nccnc1OC1CCN(C(=O)c2ccccc2Br)C1` (stereo not given) returned an RP-LC retention time of 752 s.

Turning to `CNC(=O)N1CCc2nc(-c3ccccc3)ncc2C1`, the RP-LC retention time stood at 678 s.

`c1cc(OCc2ccc(CC3CCN(C4CCOCC4)CC3)cc2)ccn1`: the RP-LC retention time turned out to be 548 s.

Regarding `O=C([C@@H]1C[C@H](F)CN1C(=O)COc1ccc(F)cc1)N1CCCCC1`, the RP-LC retention time was 714 s.

Regarding `C#CCSc1n[nH]c(-c2ccco2)n1`, the RP-LC retention time is 719 s.

As to `Cc1nc(C(=O)N2CC(F)(F)C[C@H]2c2nc(C3CC3)no2)co1`, the RP-LC retention time turned out to be 768 s.

On to `CCN1CCN(c2nc(F)c3c(c2F)S(=O)(=O)CCN3CC2CCCO2)CC1` (stereo not given), for which the RP-LC retention time was found to be 596 s.

`CCCNC(=O)C1CCN(c2ccc(SCC(=O)Nc3ccc(C(C)C)cc3)nn2)CC1` returned an RP-LC retention time of 657 s.

Regarding `CCCCN(CC)c1nc(-c2ccc([N+](=O)[O-])cc2)nc2ccccc12`, the RP-LC retention time came to 975 s.

The compound `O=C(Cn1cnc2nc(N3CCC(C(=O)NC4CC4)CC3)sc2c1=O)Nc1cccc(Cl)c1` showed an RP-LC retention time of 679 s.

In turn, `COc1cc(NC(=O)N2CCCC(Cn3cnc4cccnc43)C2)cc(OC)c1OC` (stereo not given) showed an RP-LC retention time of 627 s.

The compound `Cc1nc(-c2ccc(NC(=O)N3CCN(c4ccccn4)CC3)cc2)no1` showed an RP-LC retention time of 588 s.

Compound `CCOC(=O)c1[nH]c(C)c(CCC(=O)N2CCC(C(=O)NCCCN3CCCC3=O)CC2)c1C` came in with an RP-LC retention time of 626 s.

Consider `CCC(=O)Nc1ccc2c(c1)nc(CN1CCOCC1)n2C(C)C`, for which the RP-LC retention time is 587 s.

`CC(C)c1ccc(NC(=O)C2CCCN(c3ncnc4c3nc3n4CCCCC3)C2)cc1` (stereo not given): the RP-LC retention time amounted to 899 s.

The compound `Cc1ccc(NS(=O)(=O)c2cc3n(c2)CCN(CC(C)C)C3=O)c(C)c1` showed an RP-LC retention time of 841 s.

`CCOC(=O)c1c(C)[nH]c(C(=O)N2CCC(CC(=O)NC3CCCCC3)CC2)c1C` gave an RP-LC retention time of 778 s.

As to `Cc1ccc(-n2ncc3c(NCCN4CCOCC4)ncnc32)cc1Cl`, the RP-LC retention time is 613 s.

In turn, `O=C1NC(C(=O)NC2CCCCC2)Cn2cccc21` (stereo not given) gave an RP-LC retention time of 651 s.

As for `Cc1ccccc1NC(=O)N1CCC(N(CCC(C)C)C2CCOCC2)CC1`, the RP-LC retention time was 636 s.

In the case of `O=C(CSc1ccc(F)cc1)N1CCCC(c2nnc(-c3ccc4c(c3)OCO4)o2)C1` (stereo not given), the RP-LC retention time stood at 810 s.

On to `COCC(C)(O)CNC(=O)Nc1cccs1` (stereo not given), for which the RP-LC retention time came to 594 s.

Regarding `O=C1CCc2cc(OCCCCc3nnnn3C3CCCCC3)ccc2N1`, the RP-LC retention time was 880 s.

Compound `Cc1cc2c(cc1S(=O)(=O)N1CCCC1C(=O)Nc1ccc(F)cc1Cl)OC(C)C(=O)N2` (stereo not given) returned an RP-LC retention time of 849 s.

Consider `CCOC(=O)c1cccc(NC(=O)NC2COc3ccc(OC)cc3C2)c1` (stereo not given), for which the RP-LC retention time was found to be 906 s.

Compound `CCCCNC(=O)C1CCN(c2cc(N3CCCCC3)ncn2)CC1` registered an RP-LC retention time of 642 s.

`CCn1c(=O)c2ccn(CC(=O)NCc3ccc(C)cc3)c2n(CC)c1=O` had an RP-LC retention time of 706 s.

For `Cc1cccc(Cn2cc(S(=O)(=O)N3CCOCC3)ccc2=O)c1`, the RP-LC retention time worked out at 789 s.

`CCS(=O)(=O)N1CCOc2ccc(CCC(=O)NC3CC3)cc2C1` returned an RP-LC retention time of 675 s.

Compound `O=C1CCc2cc(NC(=O)c3ccc(-c4ccccc4)cc3)ccc2N1` displayed an RP-LC retention time of 760 s.

`CCc1nc(-c2cc(S(=O)(=O)N3CCC(C(=O)NCc4cccs4)CC3)c(C)s2)no1` gave an RP-LC retention time of 967 s.

In turn, `Cc1nc(-c2ccc(OCC(C)C)c(C#N)c2)sc1C(=O)O` displayed an RP-LC retention time of 1040 s.

The compound `Cn1cnc2c(C(=O)NC3CCCCCC3)nn(-c3ccccc3)c2c1=O` returned an RP-LC retention time of 910 s.

The compound `O=C(CN1CCN(c2ccc(F)cc2)C1=O)NCCCN1CCCC1=O` registered an RP-LC retention time of 611 s.

Consider `COC1CCC12CCN(Cc1cccc(C#N)c1)CC2` (stereo not given), for which the RP-LC retention time is 597 s.

For the compound `O=C1CCN(C(=O)c2cccs2)CCCCCCN1`, the RP-LC retention time amounted to 622 s.

Regarding `O=C(Nc1ccc(F)c(Cl)c1)c1cc(=O)c(OCc2ccc(F)cc2)co1`, the RP-LC retention time came to 899 s.

For `CCCNC(=O)C(=O)NCC(c1ccc2c(c1)CCCN2C)N1CCCC1` (stereo not given), the RP-LC retention time was determined as 647 s.

`COc1ccc(C2(C(=O)N3C[C@H]4C[C@H](C3)[C@H]3CCCC(=O)N3C4)CC2)cc1` had an RP-LC retention time of 679 s.

`COc1cccc(CNc2c(-c3nc(C(C)C)no3)cnc3nc(C)ccc23)c1`: the RP-LC retention time came to 790 s.

`COc1ccc(C)cc1NC(=O)C1CCN(S(=O)(=O)c2ccc3c(c2)CCCC(=O)N3)CC1` displayed an RP-LC retention time of 816 s.

Take `Cc1ccc(N2C(=O)CN(CCc3cccs3)[C@H]3CS(=O)(=O)C[C@H]32)cc1`: the RP-LC retention time came to 825 s.

`COCCc1noc(-c2cnc3nc(C)ccc3c2Nc2ccc(F)cc2)n1` showed an RP-LC retention time of 688 s.

With `O=C(c1noc2c1CSc1ccccc1-2)N1CCN(c2ccccn2)CC1`, the RP-LC retention time amounted to 719 s.

`O=C(NC1CCCCC1)c1ccc(CN2C(=O)C3CCCN3C(=O)c3ccccc32)cc1` (stereo not given): the RP-LC retention time is 770 s.

Compound `O=C(C1CC1)N1CCc2ccc(NS(=O)(=O)C3CCCCC3)cc21` gave an RP-LC retention time of 830 s.

On to `C1CCC(C(CC2CCCCN2)C2CCCCC2)CC1` (stereo not given), for which the RP-LC retention time turned out to be 1060 s.

In the case of `COc1ccccc1-c1nc(Cn2nnc(-c3nc(-c4ccc5c(c4)OCO5)no3)c2C)c(C)o1`, the RP-LC retention time stood at 700 s.

As for `Cn1c(=O)c(N2CCC(NC(=O)Nc3ccc(F)cc3F)CC2)nc2ccccc21`, the RP-LC retention time stood at 888 s.

`CCCSCCCNC(=O)Cn1nc(-n2cccc2)c2c(C)cc(C)nc21` gave an RP-LC retention time of 1050 s.

The compound `Cc1ccc(S(=O)(=O)Nc2ccc(-c3cn4ccccc4n3)cc2)cc1` registered an RP-LC retention time of 628 s.

In turn, `COc1ccc(C(=O)N2CCc3ccc(C(=O)NC4CCN(C)CC4)cc32)cc1` came in with an RP-LC retention time of 618 s.

As for `COc1ccccc1C(=O)Nc1cccn2ncnc12`, the RP-LC retention time was 803 s.

For `CCc1noc(-c2cccn2Cc2cc(F)cc(F)c2)n1`, the RP-LC retention time was found to be 1160 s.

For the origin of these results see the METLIN SMRT retention time set (Domingo-Almenara et al. 2019).
